In brackets after ≈: the same amount, converted by molar mass. Like-named read-outs stand apart in the source and are kept apart here.
Key:
HIV = experiment: Testing preparations against HIV in cell culture (infected human donor lymphocytes); assay type: cell-based; details: for MIC: Human immunodeficiency virus 1, 72 h, lowest concentration without giant cells; for IC50: Human immunodeficiency virus 1, Lymphocyte, 72 h
Method: Testing preparations against HIV in cell culture
Description of the method
The complete medium additionally contains 20% foetal calf serum and 40 IU/ml recombinant interleukin 2.
Lymphocytes which have been isolated from fresh donor blood by means of Ficoll® gradient centrifugation are cultured, at 37° C. for 36 h and under 5% CO2, in complete medium in the added presence of […] phytohemagglutinin (Wellcome). After the addition of 10% DMSO, the cells are frozen at a cell density of 5×10^6 and stored in liquid nitrogen. For the experiment, the cells are thawed, washed in RPMI medium and cultured for 3-4 days in complete medium.
The preparations for testing were dissolved in DMSO at a concentration of 16.7 mg/ml and diluted to 1 mg/ml in complete medium. 0.4 ml of medium was initially introduced in 24-well multiwell plates. After 0.1 ml of the dissolved preparation had been added to the upper row of the plate, a geometrical dilution series was produced by transferring 0.1 ml on each occasion. Preparation-free controls always contained 0.4 ml of complete medium containing 0.5% DMSO.
Lymphocyte cultures having a cell count of 5×10^5 cells/ml were infected by adding a 1/50 volume of the supernatant from lymphocyte cultures infected with HIV. The titer of these culture supernatants was determined, by end point dilution, to be 1-5×10^6 infectious units/ml. After incubating at 37° C. for 30 min, the infected lymphocytes were centrifuged off and taken up once again in the same volume of medium. 0.6 ml of this cell suspension was added to each of the wells in the test plate. The assay mixtures were incubated at 37° C. for 3 days.
The infected cell cultures were examined under the microscope for the presence of giant cells, which indicate that the virus is multiplying actively in the culture. The lowest preparation concentration at which no giant cells appeared was defined as the inhibitory concentration against HIV (MIC value). As a control, the presence of HIV antigen in the supernatants from the culture plates was determined using a test for HIV antigen in accordance with the manufacturer's (Organon) instructions.

[1] = molecular target: T1, HIV reverse transcriptase (Human immunodeficiency virus type 1 group M subtype B, UniProt P04585); experiment: Inhibition of HIV reverse transcriptase, scintillation proximity assay (SPA); assay type: biochemical; details: RT-SPA, 60 min, 37° C., read-out: Reverse Transcriptase Asaay IC-50 (converted)
T1 construct: purchased HT-Biotechnology LTD, Cambridge, UK; host or cells: E. coli
Method: Investigation of the ability of the substances to inhibit the HIV reverse transcriptase
The activity of the reverse transcriptase (RT) was measured by means of a scintillation proximity assay (SPA).
The reagent kit for the RT-SPA was obtained from Amersham/Buchler (Braunschweig). The RT enzyme (originating from HIV and cloned in E. coli) was provided by HT-Biotechnology LTD, Cambridge, UK.
The test was carried out in accordance with the supplier's (Amersham) methods manual--with the following modifications:
bovine serum albumin was added to the assay buffer to a final concentration of 0.5 mg/ml.
The test was carried out in Eppendorf reaction tubes using a mixture volume of […].
The supplier's RT concentrate (5000 U/ml) was diluted in 20 mM tris-HCl buffer; pH 7.2; 30% glycerol to an activity of 15 U/ml.
The assay mixtures were incubated for 60 min (at 37° C.).
After the reaction had been stopped and "developed" using the bead suspension, […] of assay mixture was transferred into 4.5 ml of 10 mM tris-HCl buffer; pH 7.4; 0.15M NaCl
and the tritium activity was measured in a β counter.
In order to carry out a preliminary test for inhibitor activity, the substances were dissolved in DMSO (stock solution concentration=1 mg/ml) and tested at 10^-1, 10^-2, 10^-3, etc. dilutions in DMSO.
In order to determine the IC50 values, the stock solutions of inhibitor were further diluted in 50 mM tris-HCl buffer, pH 8, and tested at suitable concentrations.
The concentration giving rise to 50% inhibition of the enzyme was ascertained from the graphic depiction of RT activity versus log Cinh.

[2] = HIV-infected lymphocytes, 3 days, 37° C.
[3] = HIV-infected lymphocytes, 3 days, 37° C., read-out: IC-50

| Compound | MIC (HIV; [2]) | IC50 (HIV; [3]) | IC50 ([1]; molar value in parentheses) | IC50 [1] | IC50 (HIV) | IC50 (HIV; HIV-infected lymphocytes, 3 days, unit as printed for compound 10, read-out: IC-50) | IC50 ([1]; first value of compound 18, unit as printed) |
| --- | --- | --- | --- | --- | --- | --- | --- |
| CCCC=C1c2cc(Cl)ccc2NC(=O)C1(C)C [Compound 2, 4-n-Butylene-6-chloro-3,4-dihydro-3,3-dimethylquinolin-2(1H)-one] | 0.1 µg/mL (≈ 0.379 µM) | ~15 ng/mL (≈ 0.0569 µM) | 63 nM | 64.5 nM |  |  |  |
| CCC=C1c2cc(Cl)ccc2NC(=O)C1(C)C [Compound 3] | < 0.08 µg/mL | 30 ng/mL (≈ 0.12 µM) |  | 108 nM |  |  |  |
| CCC=C1c2cc(Cl)ccc2NC(=S)C1(C)C [Compound 4] | 0.0016 µg/mL (≈ 0.00602 µM) | < 0.32 ng/mL | 8 nM | 7.52 nM |  |  |  |
| CCCC=C1c2ccccc2NC(=O)C12CCC2 [Compound 5] | 0.2 µg/mL (≈ 0.829 µM) | 40 ng/mL (≈ 0.166 µM) | 479 nM | 479 nM |  |  |  |
| CCCC=C1c2ccccc2NC(=O)C12CCCC2 [Compound 6, E/Z-4-n-butylene-3,3-cyclopentylidene-3,4-dihydroquinolin-2(1H)-one] |  |  | 113 nM | 113 nM |  |  |  |
| CCCC=C1c2ccccc2NC(=S)C12CCC2 [Compound 7] | < 0.008 µg/mL | ~0.32 ng/mL (≈ 0.00124 µM) | 18 nM | 19.4 nM |  |  |  |
| CCCC=C1c2ccccc2NC(=S)C12CCCC2 [Compound 8, E/Z-4-n-butylene-3,3-cyclopentylidene-3,4-dihydroquinolin-2(1H)-thione] | 0.008 µg/mL (≈ 0.0295 µM) |  | 16 nM | 14.7 nM | 1.6 ng/mL (≈ 0.00589 µM) |  |  |
| CC(C)=C1c2cc(Cl)ccc2NC(=S)C1(C)C [Compound 10] |  |  | 116 nM | 117 nM |  | 25 ng/mL (≈ 0.0941 µM) |  |
| C=CC=C1c2cc(Cl)ccc2NC(=S)C1(C)C [Compound 14] | < 0.008 µg/mL | 5 ng/mL (≈ 0.019 µM) | 18 nM | 15.2 nM |  |  |  |
| CC(C)C=C1c2cc(Cl)ccc2NC(=S)C1(C)C [Compound 18] | < 0.008 µg/mL | 2 ng/mL (≈ 0.00715 µM) | 55 nM |  |  |  | 54.3 nM |
| CC(C)CC=C1c2cc(Cl)ccc2NC(=O)C1(C)C [Compound 19] |  | 8 ng/mL (≈ 0.0288 µM) | 37 nM | 37.1 nM |  |  |  |
| CC(C)CC=C1c2cc(Cl)ccc2NC(=S)C1(C)C [Compound 20] | < 0.008 µg/mL | 1.5 ng/mL (≈ 0.0051 µM) | 22 nM | 21.4 nM |  |  |  |
| CC(C)C=C1c2ccccc2NC(=S)C1(C)C [Compound 24] |  |  | 270 nM | 270 nM |  |  |  |
| CCCC=C1c2ccccc2NC(=S)C1(C)C [Compound 28] | 0.008 µg/mL (≈ 0.0326 µM) | ~10 ng/mL (≈ 0.0408 µM) | 24 nM | 23.6 nM |  |  |  |
| CCCC=C1c2cc(OC)ccc2NC(=S)C1(C)C [Compound 42, E/Z-4-n-butylene-3,4-dihydro-3,3-dimethyl-6-methoxyquinolin-2(1H)-thione] | < 0.008 µg/mL | 2 ng/mL (≈ 0.00726 µM) | 9 nM | 9.44 nM |  |  |  |
| CCC=C1c2cc(OC)ccc2NC(=S)C1(C)C [Compound 45] | 0.004 µg/mL (≈ 0.0153 µM) | 2 ng/mL (≈ 0.00765 µM) | 9 nM | 9.18 nM |  |  |  |
| CCCC=C1c2ccccc2NC(=O)C1(CC)CC [Compound 48] | < 0.08 µg/mL | ~10 ng/mL (≈ 0.0389 µM) | 54 nM | 54.4 nM |  |  |  |
| CCCC=C1c2ccccc2NC(=S)C1(CC)CC [Compound 49] | < 0.02 µg/mL | ~2 ng/mL (≈ 0.00731 µM) | 24 nM | 25.6 nM |  |  |  |
| CCC=C1c2ccccc2NC(=S)C1(CC)CC [Compound 51] | 0.02 µg/mL (≈ 0.0771 µM) | ~2 ng/mL (≈ 0.00771 µM) | 23 nM | 23.1 nM |  |  |  |
| CCC1(CC)C(=O)Nc2ccccc2C1=CCC(C)C [Compound 52] | 0.02 µg/mL (≈ 0.0737 µM) | ~4 ng/mL (≈ 0.0147 µM) | 43 nM | 44.2 nM |  |  |  |
| CCC1(CC)C(=S)Nc2ccccc2C1=CCC(C)C [Compound 53] | 0.02 µg/mL (≈ 0.0696 µM) | ~2 ng/mL (≈ 0.00696 µM) | 44 nM | 45.2 nM |  |  |  |
| CCCC=C1c2cc(OCC)ccc2NC(=S)C1(C)C [Compound 55] | < 0.08 µg/mL | ~6 ng/mL (≈ 0.0207 µM) | 31 nM | 31.1 nM |  |  |  |
| CCCCCC=C1c2cc(OC)ccc2NC(=S)C1(C)C [Compound 64] |  |  | 109 nM | 109 nM |  |  |  |
| C=CC=C1c2cc(OC)ccc2NC(=S)C1(C)C [Compound 68] |  |  |  | ~38.6 nM |  |  |  |
